Measurements from paper PMC12621043, “Un-LOK-ing a New Approach for Conformational Selective Targeting of STK10 (LOK)” (ACS Medicinal Chemistry Letters, 2025).

Each compound was assayed on CDC42BPAA (assay: DSF Tm panel). Conditions: 10 μM compound.
Assay type: binding

| Compound | ΔTm CDC42BPAA |
| --- | --- |
| Cc1ccc(F)cc1CNC(=O)Nc1ccc2cc1OCCOCCNc1ccn3ncc-2c3n1 [compound 26] | 0,2 °C |
| O=C(NCc1ccccc1C(F)(F)F)Nc1ccc2cc1OCCOCCNc1ccn3ncc-2c3n1 [compound 27] | 1,0 °C |
| COc1ccccc1CNC(=O)Nc1ccc2cc1OCCOCCNc1ccn3ncc-2c3n1 [compound 29] | 0,3 °C |

These compounds were tested against T1, EPHA2 (EPHA2A) (Homo sapiens, UniProt P29317) (assay: DSF Tm panel). Conditions: 10 μM compound.
T1 construct: purchased in-house DSF kinase panel (SGC-style construct names; the trailing letter is the construct ID)
T1 sequence (P29317 596-900): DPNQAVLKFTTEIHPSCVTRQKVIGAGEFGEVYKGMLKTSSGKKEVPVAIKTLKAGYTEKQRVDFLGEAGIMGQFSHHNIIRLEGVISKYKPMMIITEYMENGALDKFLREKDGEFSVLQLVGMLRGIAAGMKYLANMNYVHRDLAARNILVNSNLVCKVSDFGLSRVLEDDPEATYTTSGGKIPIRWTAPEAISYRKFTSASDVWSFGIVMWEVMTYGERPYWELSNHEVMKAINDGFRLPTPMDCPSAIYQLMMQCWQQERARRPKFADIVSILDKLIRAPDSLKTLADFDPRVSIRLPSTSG
Assay type: binding

| Compound | ΔTm at 10 µM [°C] |
| --- | --- |
| Cc1ccc(F)cc1CNC(=O)Nc1ccc2cc1OCCOCCNc1ccn3ncc-2c3n1 [compound 26] | 0.3 |
| O=C(NCc1ccccc1C(F)(F)F)Nc1ccc2cc1OCCOCCNc1ccn3ncc-2c3n1 [compound 27] | 0.2 |
| COc1ccccc1CNC(=O)Nc1ccc2cc1OCCOCCNc1ccn3ncc-2c3n1 [compound 29] | 0.4 |

Each compound was assayed against T2, NEK1A (Homo sapiens, UniProt Q96PY6) (assay: DSF Tm panel). Conditions: 10 μM compound.
T2 construct: purchased in-house DSF kinase panel (SGC-style construct names; the trailing letter is the construct ID)
T2 sequence (Q96PY6 1-328): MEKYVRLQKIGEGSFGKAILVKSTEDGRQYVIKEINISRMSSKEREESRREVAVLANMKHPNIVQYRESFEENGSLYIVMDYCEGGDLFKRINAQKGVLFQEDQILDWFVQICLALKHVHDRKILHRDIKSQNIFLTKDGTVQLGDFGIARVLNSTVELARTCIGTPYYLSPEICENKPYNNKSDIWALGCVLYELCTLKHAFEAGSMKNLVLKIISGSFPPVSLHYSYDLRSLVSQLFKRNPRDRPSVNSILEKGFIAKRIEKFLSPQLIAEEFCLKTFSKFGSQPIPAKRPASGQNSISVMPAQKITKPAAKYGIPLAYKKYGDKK
Assay type: binding

| Compound | ΔTm at 10 µM [°C] |
| --- | --- |
| Cc1ccc(F)cc1CNC(=O)Nc1ccc2cc1OCCOCCNc1ccn3ncc-2c3n1 [compound 26] | -0.4 |
| O=C(NCc1ccccc1C(F)(F)F)Nc1ccc2cc1OCCOCCNc1ccn3ncc-2c3n1 [compound 27] | -0.4 |
| COc1ccccc1CNC(=O)Nc1ccc2cc1OCCOCCNc1ccn3ncc-2c3n1 [compound 29] | -0.3 |

Each compound was assayed on RPS6KA1A (assay: DSF Tm panel). Conditions: 10 μM compound.
Assay type: binding

| Compound | ΔTm RPS6KA1A |
| --- | --- |
| Cc1ccc(F)cc1CNC(=O)Nc1ccc2cc1OCCOCCNc1ccn3ncc-2c3n1 [compound 26] | 0,3 °C |
| O=C(NCc1ccccc1C(F)(F)F)Nc1ccc2cc1OCCOCCNc1ccn3ncc-2c3n1 [compound 27] | 0,2 °C |
| COc1ccccc1CNC(=O)Nc1ccc2cc1OCCOCCNc1ccn3ncc-2c3n1 [compound 29] | 0,5 °C |

What follows are compounds tested against T3, STK4 (STK4A) (Homo sapiens, UniProt Q13043) (assay: DSF Tm panel). Conditions: 10 μM compound.
T3 construct: purchased in-house DSF kinase panel (SGC-style construct names; the trailing letter is the construct ID)
T3 sequence (Q13043 1-311): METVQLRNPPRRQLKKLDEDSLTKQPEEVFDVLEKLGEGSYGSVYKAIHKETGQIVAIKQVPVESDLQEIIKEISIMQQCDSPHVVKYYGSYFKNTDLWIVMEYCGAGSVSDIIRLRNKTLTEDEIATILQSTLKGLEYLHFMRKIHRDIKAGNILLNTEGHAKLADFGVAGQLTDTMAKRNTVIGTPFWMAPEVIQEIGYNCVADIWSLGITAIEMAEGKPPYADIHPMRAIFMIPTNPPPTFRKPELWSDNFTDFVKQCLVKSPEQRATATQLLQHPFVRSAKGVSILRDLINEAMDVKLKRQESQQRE
Assay type: binding

| Compound | ΔTm at 10 µM [°C] |
| --- | --- |
| Cc1ccc(F)cc1CNC(=O)Nc1ccc2cc1OCCOCCNc1ccn3ncc-2c3n1 [compound 26] | 3.1 |
| O=C(NCc1ccccc1C(F)(F)F)Nc1ccc2cc1OCCOCCNc1ccn3ncc-2c3n1 [compound 27] | 3.8 |
| COc1ccccc1CNC(=O)Nc1ccc2cc1OCCOCCNc1ccn3ncc-2c3n1 [compound 29] | 2.6 |

The compounds below were run against T4, VRK1A (Homo sapiens, UniProt Q99986) (assay: DSF Tm panel). Conditions: 10 μM compound.
T4 construct: purchased in-house DSF kinase panel (SGC-style construct names; the trailing letter is the construct ID)
T4 sequence (Q99986 1-396): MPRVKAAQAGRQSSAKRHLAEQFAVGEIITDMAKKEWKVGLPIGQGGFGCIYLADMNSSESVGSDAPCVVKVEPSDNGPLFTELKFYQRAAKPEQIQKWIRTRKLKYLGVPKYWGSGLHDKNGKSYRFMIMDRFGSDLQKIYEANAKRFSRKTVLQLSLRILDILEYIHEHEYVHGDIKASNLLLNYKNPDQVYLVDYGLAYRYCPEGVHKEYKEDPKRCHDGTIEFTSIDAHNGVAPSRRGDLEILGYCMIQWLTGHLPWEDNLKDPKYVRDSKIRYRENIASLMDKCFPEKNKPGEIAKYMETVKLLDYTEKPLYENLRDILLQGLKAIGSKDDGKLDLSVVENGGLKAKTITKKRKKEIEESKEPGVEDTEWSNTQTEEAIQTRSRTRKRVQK
Assay type: binding

| Compound | ΔTm at 10 µM [°C] |
| --- | --- |
| Cc1ccc(F)cc1CNC(=O)Nc1ccc2cc1OCCOCCNc1ccn3ncc-2c3n1 [compound 26] | 0.5 |
| O=C(NCc1ccccc1C(F)(F)F)Nc1ccc2cc1OCCOCCNc1ccn3ncc-2c3n1 [compound 27] | 0.4 |
| COc1ccccc1CNC(=O)Nc1ccc2cc1OCCOCCNc1ccn3ncc-2c3n1 [compound 29] | 0 |

The compounds below were run against T5, STK3 (STK3A) (Homo sapiens, UniProt Q13188) (assay: DSF Tm panel). Conditions: 10 μM compound.
T5 construct: purchased in-house DSF kinase panel (SGC-style construct names; the trailing letter is the construct ID)
T5 sequence (Q13188 16-313): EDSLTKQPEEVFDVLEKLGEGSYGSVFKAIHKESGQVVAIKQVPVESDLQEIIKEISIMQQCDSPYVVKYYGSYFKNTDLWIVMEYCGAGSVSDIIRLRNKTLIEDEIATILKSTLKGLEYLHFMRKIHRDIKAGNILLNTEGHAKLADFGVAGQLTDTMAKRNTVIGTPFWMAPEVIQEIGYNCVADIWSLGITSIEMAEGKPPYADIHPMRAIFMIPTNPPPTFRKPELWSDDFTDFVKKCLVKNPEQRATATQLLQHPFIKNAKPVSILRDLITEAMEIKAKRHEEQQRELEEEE
Assay type: binding

| Compound | ΔTm at 10 µM [°C] |
| --- | --- |
| Cc1ccc(F)cc1CNC(=O)Nc1ccc2cc1OCCOCCNc1ccn3ncc-2c3n1 [compound 26] | 4.1 |
| O=C(NCc1ccccc1C(F)(F)F)Nc1ccc2cc1OCCOCCNc1ccn3ncc-2c3n1 [compound 27] | 4.7 |
| COc1ccccc1CNC(=O)Nc1ccc2cc1OCCOCCNc1ccn3ncc-2c3n1 [compound 29] | 3.4 |

These compounds were tested against T6, SLK (Homo sapiens, UniProt Q9H2G2) (assay: PhosphoSens in vitro activity assay). Conditions: ATP 150 μM.
Assay type: biochemical

| Compound | IC50 [µM] |
| --- | --- |
| Cc1ccc(F)cc1CNC(=O)Nc1ccc2cc1OCCOCCNc1ccn3ncc-2c3n1 [compound 26] | 9.8 ± 2.41 |
| O=C(NCc1ccccc1C(F)(F)F)Nc1ccc2cc1OCCOCCNc1ccn3ncc-2c3n1 [compound 27] | 2.74 ± 0.89 |
| COc1ccccc1CNC(=O)Nc1ccc2cc1OCCOCCNc1ccn3ncc-2c3n1 [compound 29] | 17.1 ± 2.86 |

The compounds below were run against T7, MELKA (Homo sapiens, UniProt Q14680) (assay: DSF Tm panel). Conditions: 10 μM compound.
T7 construct: purchased in-house DSF kinase panel (SGC-style construct names; the trailing letter is the construct ID)
Assay type: binding

T7 sequence (Q14680 1-340): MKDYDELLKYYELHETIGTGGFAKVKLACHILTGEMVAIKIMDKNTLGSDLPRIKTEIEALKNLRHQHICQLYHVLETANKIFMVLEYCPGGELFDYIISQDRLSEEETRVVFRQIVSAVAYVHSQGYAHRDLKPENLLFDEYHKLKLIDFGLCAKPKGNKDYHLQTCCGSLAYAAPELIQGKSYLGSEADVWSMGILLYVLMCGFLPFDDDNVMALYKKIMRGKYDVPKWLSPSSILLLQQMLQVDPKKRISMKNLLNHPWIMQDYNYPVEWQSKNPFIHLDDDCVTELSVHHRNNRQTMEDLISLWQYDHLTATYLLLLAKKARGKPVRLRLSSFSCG

| Compound | ΔTm at 10 µM [°C] |
| --- | --- |
| Cc1ccc(F)cc1CNC(=O)Nc1ccc2cc1OCCOCCNc1ccn3ncc-2c3n1 [compound 26] | 1.1 |
| O=C(NCc1ccccc1C(F)(F)F)Nc1ccc2cc1OCCOCCNc1ccn3ncc-2c3n1 [compound 27] | 0.4 |
| COc1ccccc1CNC(=O)Nc1ccc2cc1OCCOCCNc1ccn3ncc-2c3n1 [compound 29] | 1 |

The compounds below were run against T8, AAK1 (AAK1A) (Homo sapiens, UniProt Q2M2I8) (assay: DSF Tm panel). Conditions: 10 μM compound.
T8 construct: purchased in-house DSF kinase panel (SGC-style construct names; the trailing letter is the construct ID)
Assay type: binding

T8 sequence (Q2M2I8 27-365): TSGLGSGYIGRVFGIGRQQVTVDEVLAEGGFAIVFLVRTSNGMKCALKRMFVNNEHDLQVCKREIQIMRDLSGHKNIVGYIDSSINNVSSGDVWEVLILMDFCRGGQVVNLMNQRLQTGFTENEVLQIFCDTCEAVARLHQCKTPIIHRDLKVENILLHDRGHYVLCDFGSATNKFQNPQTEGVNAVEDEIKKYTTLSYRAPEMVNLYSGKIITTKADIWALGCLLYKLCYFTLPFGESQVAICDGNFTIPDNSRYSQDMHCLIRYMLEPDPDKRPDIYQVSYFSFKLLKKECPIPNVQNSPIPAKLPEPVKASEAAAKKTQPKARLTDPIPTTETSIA

| Compound | ΔTm at 10 µM [°C] |
| --- | --- |
| Cc1ccc(F)cc1CNC(=O)Nc1ccc2cc1OCCOCCNc1ccn3ncc-2c3n1 [compound 26] | 5 |
| O=C(NCc1ccccc1C(F)(F)F)Nc1ccc2cc1OCCOCCNc1ccn3ncc-2c3n1 [compound 27] | 3.9 |
| COc1ccccc1CNC(=O)Nc1ccc2cc1OCCOCCNc1ccn3ncc-2c3n1 [compound 29] | 5.5 |

Each compound was assayed against T6, SLK (assay: NanoBRET target engagement assay). Conditions: HEK293T cells.
Assay type: cell-based
Design: has a greater impact on the full-length protein than on the kinase domains; host or cells: HEK293T (ATCC CRL-3216)

| Compound | EC50 [µM] |
| --- | --- |
| Cc1ccc(F)cc1CNC(=O)Nc1ccc2cc1OCCOCCNc1ccn3ncc-2c3n1 [compound 26] | > 50 |
| O=C(NCc1ccccc1C(F)(F)F)Nc1ccc2cc1OCCOCCNc1ccn3ncc-2c3n1 [compound 27] | > 50 |
| COc1ccccc1CNC(=O)Nc1ccc2cc1OCCOCCNc1ccn3ncc-2c3n1 [compound 29] | > 50 |

The compounds below were run against T9, BMP2KA (Homo sapiens, UniProt Q9NSY1) (assay: DSF Tm panel). Conditions: 10 μM compound.
T9 construct: purchased in-house DSF kinase panel (SGC-style construct names; the trailing letter is the construct ID)
Assay type: binding

T9 sequence (Q9NSY1 38-345): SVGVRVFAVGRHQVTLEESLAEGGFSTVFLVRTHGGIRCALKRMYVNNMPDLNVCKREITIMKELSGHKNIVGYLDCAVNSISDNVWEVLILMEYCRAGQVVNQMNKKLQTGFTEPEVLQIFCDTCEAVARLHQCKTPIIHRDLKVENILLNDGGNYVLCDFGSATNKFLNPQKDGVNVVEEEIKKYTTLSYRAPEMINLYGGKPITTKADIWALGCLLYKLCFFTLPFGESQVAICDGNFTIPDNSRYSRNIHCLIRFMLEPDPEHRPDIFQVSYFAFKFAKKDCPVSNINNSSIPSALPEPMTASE

| Compound | ΔTm at 10 µM [°C] |
| --- | --- |
| Cc1ccc(F)cc1CNC(=O)Nc1ccc2cc1OCCOCCNc1ccn3ncc-2c3n1 [compound 26] | 9.1 |
| O=C(NCc1ccccc1C(F)(F)F)Nc1ccc2cc1OCCOCCNc1ccn3ncc-2c3n1 [compound 27] | 7.2 |
| COc1ccccc1CNC(=O)Nc1ccc2cc1OCCOCCNc1ccn3ncc-2c3n1 [compound 29] | 8.3 |

These compounds were tested against T10, DYRK1AA (Homo sapiens, UniProt Q13627) (assay: DSF Tm panel). Conditions: 10 μM compound.
T10 construct: purchased in-house DSF kinase panel (SGC-style construct names; the trailing letter is the construct ID)
Assay type: binding

| Compound | ΔTm at 10 µM [°C] |
| --- | --- |
| Cc1ccc(F)cc1CNC(=O)Nc1ccc2cc1OCCOCCNc1ccn3ncc-2c3n1 [compound 26] | 0.8 |
| O=C(NCc1ccccc1C(F)(F)F)Nc1ccc2cc1OCCOCCNc1ccn3ncc-2c3n1 [compound 27] | 1 |
| COc1ccccc1CNC(=O)Nc1ccc2cc1OCCOCCNc1ccn3ncc-2c3n1 [compound 29] | -0.5 |

These compounds were tested against T11, MAPK13A (Homo sapiens, UniProt O15264) (assay: DSF Tm panel). Conditions: 10 μM compound.
T11 construct: purchased in-house DSF kinase panel (SGC-style construct names; the trailing letter is the construct ID)
T11 sequence (O15264 1-365): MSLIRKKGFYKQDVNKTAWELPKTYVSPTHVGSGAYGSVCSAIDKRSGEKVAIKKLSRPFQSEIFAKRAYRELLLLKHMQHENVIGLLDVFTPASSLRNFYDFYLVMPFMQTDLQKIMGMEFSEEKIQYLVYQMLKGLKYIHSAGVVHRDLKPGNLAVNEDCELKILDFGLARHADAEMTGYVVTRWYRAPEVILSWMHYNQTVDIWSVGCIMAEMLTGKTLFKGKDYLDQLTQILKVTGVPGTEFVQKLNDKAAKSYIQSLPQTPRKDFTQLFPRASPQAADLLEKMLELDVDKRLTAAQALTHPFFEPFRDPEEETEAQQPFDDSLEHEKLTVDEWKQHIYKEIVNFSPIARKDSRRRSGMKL
Assay type: binding

| Compound | ΔTm at 10 µM [°C] |
| --- | --- |
| Cc1ccc(F)cc1CNC(=O)Nc1ccc2cc1OCCOCCNc1ccn3ncc-2c3n1 [compound 26] | -0.2 |
| O=C(NCc1ccccc1C(F)(F)F)Nc1ccc2cc1OCCOCCNc1ccn3ncc-2c3n1 [compound 27] | -0.5 |
| COc1ccccc1CNC(=O)Nc1ccc2cc1OCCOCCNc1ccn3ncc-2c3n1 [compound 29] | 0.02 |

Each compound was assayed against T12, CDKL1A (Homo sapiens, UniProt Q00532) (assay: DSF Tm panel). Conditions: 10 μM compound.
T12 construct: purchased in-house DSF kinase panel (SGC-style construct names; the trailing letter is the construct ID)
Assay type: binding

T12 sequence (Q00532 1-303): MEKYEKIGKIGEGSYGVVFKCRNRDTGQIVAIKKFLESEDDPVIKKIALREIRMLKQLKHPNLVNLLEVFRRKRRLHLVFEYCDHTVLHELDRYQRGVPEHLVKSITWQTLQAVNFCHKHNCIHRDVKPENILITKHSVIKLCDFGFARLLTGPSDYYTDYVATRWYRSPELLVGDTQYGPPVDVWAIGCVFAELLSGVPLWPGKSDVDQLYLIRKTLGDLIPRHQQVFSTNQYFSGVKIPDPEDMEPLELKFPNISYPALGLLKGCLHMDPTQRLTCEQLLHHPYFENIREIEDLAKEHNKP

| Compound | ΔTm at 10 µM [°C] |
| --- | --- |
| Cc1ccc(F)cc1CNC(=O)Nc1ccc2cc1OCCOCCNc1ccn3ncc-2c3n1 [compound 26] | 0.5 |
| O=C(NCc1ccccc1C(F)(F)F)Nc1ccc2cc1OCCOCCNc1ccn3ncc-2c3n1 [compound 27] | 0.4 |
| COc1ccccc1CNC(=O)Nc1ccc2cc1OCCOCCNc1ccn3ncc-2c3n1 [compound 29] | 0.2 |
